The record followed here is patent US20080280837A1, “Biologically Active Compounds with Anti-Angiogenic Properties” (priority 2004, published 2008).

For the test, the target named is T1, Human SST5 somatostatin receptor (SSTR5) (Homo sapiens, UniProt P35346).
T1 construct: expressed in transfected cells; host or cells: HEK-293 EBNA
As to the kind of experiment: Filter plate assay for SST5 receptor, displacement of [125I]SST-14. It counts as binding. As for the experimental part:
Receptor membrane preparations containing the desired cloned receptor (for example cloned human somatostatin receptor subtype 5, SSTR5) and radio-labeled ligand (for example 3-[^125I]iodotyrosyl^11 Somatostatin-14)) were diluted at the concentration required for testing and according to the specific parameters associated with the selected receptor-ligand combination, including receptor Bmax, ligand Kd and any other parameters necessary to optimize the experimental conditions. When tested for competition activity to the reference ligand, “compound 1” was mixed with membrane suspension and the radiolabeled reference ligand (with or without an excess of cold ligand to the receptor for determination of non-specific binding) and incubated at the temperature required by internal standard operating procedures. Following incubation, the binding reaction was stopped by the addition of ice-cold washing buffer and filtered on appropriate filters, which are then counted. Data analysis and curve-fitting was performed with XLfit (IDBS).
10 mM solutions of test compounds in 100% DMSO were prepared. ˜160 μl was used for each dilution (20 μl/well in triplicate).
A 1.25 mM assay stock was prepared by making a 1:8 dilution of the 10 mM solution. (To 30 μL of the 10 mM solution was added 210 μL milli-Q H2O. A 1:5 dilution series in milli-Q H2O was then prepared.
Assays were performed in triplicate at each concentration within the 1:5 dilution series: 250 μM, 50 μM, 10 μM, […], 0.4 μM, 0.08 μM, 0.016 μM, 0.0032 μM, etc. (for SST4 assay) and 125 μM, 10 μM, 2 μM, 1 μM, 0.5 μM, etc (for SST5 assay).
Human SST5 somatostatin receptor was transfected into HEK-293 EBNA cells. Membranes were suspended in assay buffer (50 mM Tris-HCl, 1 mM EGTA, 5 mM MgCl2, 10% sucrose, pH 7.5).
After thawing the frozen receptor preparation rapidly, receptors were diluted with binding buffer, homogenized, and kept on ice. • 1. Use Multiscreen glass fiber filter plates (Millipore, Cat No MAFCNOB10) precoated with o.5% PEI for ˜2 hr at 4° C. Before use add 200 μl/well assay buffer and filter using Multiscreen Separation System. • 2. Incubate 5.5 μg of membranes (40 μl of a 1:40 dilution), buffer and [^125I]SST-14 (4 nM, ˜80 000 cpm, 2000 Ci/mmol) in a total volume of 200 μl for 60 min at 25° C. […] Prepare serial dilutions (1:5) of compounds, as described above and instead of adding SST-14 in well, add 20 μl of compounds (Table 1). • 3. Filter using Multiscreen Separation System with 5×0.2 ml ice-cold Assay buffer. • 4. Remove the plastic underdrain and dry plate in oven for 1 hr at 40° C. • 5. Seal tape to the bottom of the plate. • 6. Add 50 μl/well scintillant (Supermix, Wallac, Cat No 1200-439). • 7. Seal and count in the BJET, program 2.
In primary screening experiments compounds were tested in duplicate for a particular concentration.

T1 sequence (P35346 whole entry): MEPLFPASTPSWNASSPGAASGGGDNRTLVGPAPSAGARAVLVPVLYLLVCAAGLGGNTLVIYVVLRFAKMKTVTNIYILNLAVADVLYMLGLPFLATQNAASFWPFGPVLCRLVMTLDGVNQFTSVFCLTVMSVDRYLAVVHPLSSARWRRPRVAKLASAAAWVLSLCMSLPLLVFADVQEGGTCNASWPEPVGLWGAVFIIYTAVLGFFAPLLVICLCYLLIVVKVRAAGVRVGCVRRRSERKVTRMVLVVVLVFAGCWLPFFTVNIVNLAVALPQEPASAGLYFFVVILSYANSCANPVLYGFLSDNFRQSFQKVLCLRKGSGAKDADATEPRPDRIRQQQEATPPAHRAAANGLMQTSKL

Consider `COC[C@H]1OC(OCc2ccccc2)[C@H](NC(=O)CCN)[C@H](OCc2ccc(Cl)cc2)[C@@H]1O` (stereo partly drawn) [Compound 22], for which the “SSTR5 Inhib 0.5 uM % (inhibition of binding of SST-14 to SSTR5)” value (from here on “SSTR5 Inhib 0.5 uM %”) is given as 80% and the “SSTR5 Inhib 10 uM % (inhibition of binding of SST-14 to SSTR5)” value (shortened to “SSTR5 Inhib 10 uM %”) came to 96%.
`COC[C@H]1OC(OCc2ccccc2)[C@H](NC(=O)CCCN)[C@H](OCc2ccccc2)[C@@H]1O` (stereo partly drawn) [Compound 154]: the “SSTR5 Inhib 0.5 uM %” value was determined as 33% and the “SSTR5 Inhib 10 uM %” value is reported as 76%.
In the same order, the values of `COC1C(O)C(COCc2ccc(-c3ccccc3)cc2)OC(OCc2ccc(Cl)cc2)C1NC(=O)CCCN` (stereo not drawn) [Compound 40] are 66% and 95%.
In the same order, the values of `CSC1O[C@H](COCc2ccc3ccccc3c2)[C@@H](O)[C@@H](OCc2ccc3ccccc3c2)[C@H]1NC(=O)CCNC(=N)N` (stereo partly drawn) [Compound 114] are 47% and 82%.
The like results for `COC[C@H]1OC(OCc2ccc(-c3ccccc3)cc2)[C@H](NC(=O)CCCNC(=N)N)[C@@H](OCc2ccc(-c3ccccc3)cc2)[C@@H]1O` (stereo partly drawn) [Compound 130] were, in that order, 40% and 80%.
With `COC1C(O)C(COCc2ccc(-c3ccccc3)cc2)OC(OCc2ccc3ccccc3c2)C1NC(=O)CCNC(=N)N` (stereo not drawn) [Compound 169], the “SSTR5 Inhib 0.5 uM %” value amounted to 27% and the “SSTR5 Inhib 10 uM %” value came out at 72%.
The like results for `CSC1O[C@H](COCc2ccc3ccccc3c2)[C@@H](O)[C@@H](OCc2ccccc2)[C@H]1NC(=O)CCNC(=N)N` (stereo partly drawn) [Compound 89] were, in that order, 58% and 86%.
On to `CSC1O[C@H](COCc2ccc(Cl)cc2)[C@@H](O)[C@@H](OCc2ccc3ccccc3c2)[C@H]1NC(=O)CCCNC(=N)N` (stereo partly drawn) [Compound 49], for which the “SSTR5 Inhib 0.5 uM %” value is 60% and the “SSTR5 Inhib 10 uM %” value stood at 92%.
The like results for `COC[C@H]1OC(OCc2ccccc2)[C@H](NC(=O)CCN)[C@H](OCc2ccc3ccccc3c2)[C@@H]1O` (stereo partly drawn) [Compound 18] were, in that order, 90% and 98%.
The like results for `CSC1O[C@H](COCc2ccc3ccccc3c2)[C@@H](O)[C@@H](OCc2ccc(Cl)cc2)[C@H]1NC(=O)CNC(=N)N` (stereo partly drawn) [Compound 116] were, in that order, 42% and 82%.
`COC[C@H]1OC(OCc2ccc3ccccc3c2)[C@H](NC(=O)CCCN)[C@@H](OCc2ccccc2)[C@@H]1O` (stereo partly drawn) [Compound 68]: the “SSTR5 Inhib 0.5 uM %” value worked out at 46% and the “SSTR5 Inhib 10 uM %” value amounted to 89%.
The like results for `COC[C@H]1OC(OCc2ccc3ccccc3c2)[C@H](NC(=O)CNC(=N)N)[C@@H](OCc2ccc(-c3ccccc3)cc2)[C@@H]1O` (stereo partly drawn) [Compound 88] were, in that order, 63% and 86%.
The like results for `CO[C@H]1[C@H](O)[C@@H](COCc2ccc3ccccc3c2)OC(OCc2ccc(Cl)cc2)[C@@H]1NC(=O)CCCN` (stereo partly drawn) [Compound 121] were, in that order, 32% and 81%.
The like results for `COC[C@H]1OC(OCCc2ccccc2)[C@H](NC(=O)CCCNC(=N)N)[C@@H](OCc2ccc(-c3ccccc3)cc2)[C@@H]1O` (stereo partly drawn) [Compound 132] were, in that order, 39% and 80%.
With `COC1C(O)C(COCc2ccc3ccccc3c2)OC(OCCc2ccccc2)C1NC(=O)CCCN` (stereo not drawn) [Compound 140], the “SSTR5 Inhib 0.5 uM %” value was 38% and the “SSTR5 Inhib 10 uM %” value is reported as 78%.
